Publication PMC9898036, “VIP152 is a selective CDK9 inhibitor with pre-clinical in vitro and in vivo efficacy in chronic lymphocytic leukemia” (Leukemia, 2022)
pIC50, pKi: −log10 of the molar value.

Columns and labels:
Histamine H1 = Histamine H1 (Homo sapiens, UniProt P35367); experiment: Eurofins Diversity Panel; assay type: binding; details: hum, Conc. 10 μM
ERBB3 = ERBB3 (Homo sapiens, UniProt P21860); experiment: KINOMEscan: ERBB3; assay type: binding; details: 1000 nM, read-out: Percent Control
CAMK2B = CAMK2B (Homo sapiens, UniProt Q13554); experiment: KINOMEscan: CAMK2B; assay type: binding; details: 1000 nM, read-out: Percent Control
DYRK1B = DYRK1B (Homo sapiens, UniProt Q9Y463); experiment: KINOMEscan: DYRK1B; assay type: binding; details: 1000 nM, read-out: Percent Control
ACVRL1 = ACVRL1 (Homo sapiens, UniProt P37023); experiment: KINOMEscan: ACVRL1; assay type: binding; details: 1000 nM, read-out: Percent Control
[1] = molecular target: JAK1(JH1domain-catalytic) (Homo sapiens, UniProt P23458); experiment: KINOMEscan: JAK1(JH1domain-catalytic); assay type: binding; details: 1000 nM, read-out: Percent Control
HIPK2 = HIPK2 (Homo sapiens, UniProt Q9H2X6); experiment: KINOMEscan: HIPK2; assay type: binding; details: 1000 nM, read-out: Percent Control
MLK3 = MLK3 (Homo sapiens, UniProt Q16584); experiment: KINOMEscan: MLK3; assay type: binding; details: 1000 nM, read-out: Percent Control
[2] = system: treatment-naïve primary CLL samples; experiment: Annexin V/propidium iodide flow cytometry; assay type: cell-based; details: Homo sapiens; 10 treatment-naïve samples; read-out: IC50 (cytotoxic activity)
ERK2 = ERK2 (Homo sapiens, UniProt P28482); experiment: KINOMEscan: ERK2; assay type: binding; details: 1000 nM, read-out: Percent Control
AKT2 = AKT2 (Homo sapiens, UniProt P31751); experiment: KINOMEscan: AKT2; assay type: binding; details: 1000 nM, read-out: Percent Control
EPHA5 = EPHA5 (Homo sapiens, UniProt P54756); experiment: KINOMEscan: EPHA5; assay type: binding; details: 1000 nM, read-out: Percent Control
BTK = BTK (Homo sapiens, UniProt Q06187); experiment: KINOMEscan: BTK; assay type: binding; details: 1000 nM, read-out: Percent Control
EGFR(L858R) = EGFR(L858R) (Homo sapiens, UniProt P00533, L858R); experiment: KINOMEscan: EGFR(L858R); assay type: binding; details: 1000 nM, read-out: Percent Control
hERG potassium channel = hERG potassium channel (Homo sapiens, UniProt Q12809); experiment: Eurofins Diversity Panel; assay type: binding; details: hum, Conc. 10 μM
RET(V804M) = RET(V804M) (Homo sapiens, UniProt P07949, V804M); experiment: KINOMEscan: RET(V804M); assay type: binding; details: 100 nM, read-out: Percent Control
SNARK = SNARK (Homo sapiens, UniProt Q9H093); experiment: KINOMEscan: SNARK; assay type: binding; details: 100 nM, read-out: Percent Control
WNK1 = WNK1 (Homo sapiens, UniProt Q9H4A3); experiment: KINOMEscan: WNK1; assay type: binding; details: 100 nM, read-out: Percent Control
Imidazoline I2, Central = experiment: Eurofins Diversity Panel; assay type: binding; details: rat
[3] = system: primary CLL samples with human stromal cell line (HS-5) co-culture; experiment: Annexin V/PI flow cytometry, four-hour treatment with washout, HS-5 stromal co-culture; assay type: cell-based; details: relapse/refractory samples; four-hour exposure, after 24 h
STK35 = STK35 (Homo sapiens, UniProt Q8TDR2); experiment: KINOMEscan: STK35; assay type: binding; details: 100 nM, read-out: Percent Control
BUB1 = BUB1 (Homo sapiens, UniProt O43683); experiment: KINOMEscan: BUB1; assay type: binding; details: 1000 nM, read-out: Percent Control
ROS1 = ROS1 (Homo sapiens, UniProt P08922); experiment: KINOMEscan: ROS1; assay type: binding; details: 100 nM, read-out: Percent Control
DYRK2 = DYRK2 (Homo sapiens, UniProt Q92630); experiment: KINOMEscan: DYRK2; assay type: binding; details: 1000 nM, read-out: Percent Control
CDC2L5 = CDC2L5 (Homo sapiens, UniProt Q14004); experiment: KINOMEscan: CDC2L5; assay type: binding; details: 1000 nM, read-out: Percent Control
MST4 = MST4 (Homo sapiens, UniProt Q9P289); experiment: KINOMEscan: MST4; assay type: binding; details: 1000 nM, read-out: Percent Control
GSK3B = GSK3B (Homo sapiens, UniProt P49841); experiment: KINOMEscan: GSK3B; assay type: binding; details: 1000 nM, read-out: Percent Control
KIT(V559D,V654A) = KIT(V559D,V654A) (Homo sapiens, UniProt P10721, V559D/V654A); experiment: KINOMEscan: KIT(V559D,V654A); assay type: binding; details: 1000 nM, read-out: Percent Control
Potassium Channel [KATP] = Potassium Channel [KATP] (Cricetus cricetus, UniProt Q09427); experiment: Eurofins Diversity Panel; assay type: binding, hamster; details: ham, Conc. 10 μM
Protocol: The structure and synthesis of VIP152 were recently described by Lücking et al.. (Fig. 1A); however, the selectivity of the molecule in cellular systems has yet to be explored. […] We also performed this experiment at 1000 nM, where CDK9 was inhibited at 99%. […] We found a strong concordance between our data and those of Lücking when comparing the most inhibited kinases. Potential off-target effects of VIP152 were next tested in vitro at a concentration of 10 µM for off-target activity against a broad range of receptors, transporters, ion channels, and enzymes (n = 138) using the Eurofins Diversity Panel.

MARK3 = MARK3 (Homo sapiens, UniProt P27448); experiment: KINOMEscan: MARK3; assay type: binding; details: 1000 nM, read-out: Percent Control
EGFR(G719S) = EGFR(G719S) (Homo sapiens, UniProt P00533, G719S); experiment: KINOMEscan: EGFR(G719S); assay type: binding; details: 1000 nM, read-out: Percent Control

EPHA5, sequence (P54756 25-1037): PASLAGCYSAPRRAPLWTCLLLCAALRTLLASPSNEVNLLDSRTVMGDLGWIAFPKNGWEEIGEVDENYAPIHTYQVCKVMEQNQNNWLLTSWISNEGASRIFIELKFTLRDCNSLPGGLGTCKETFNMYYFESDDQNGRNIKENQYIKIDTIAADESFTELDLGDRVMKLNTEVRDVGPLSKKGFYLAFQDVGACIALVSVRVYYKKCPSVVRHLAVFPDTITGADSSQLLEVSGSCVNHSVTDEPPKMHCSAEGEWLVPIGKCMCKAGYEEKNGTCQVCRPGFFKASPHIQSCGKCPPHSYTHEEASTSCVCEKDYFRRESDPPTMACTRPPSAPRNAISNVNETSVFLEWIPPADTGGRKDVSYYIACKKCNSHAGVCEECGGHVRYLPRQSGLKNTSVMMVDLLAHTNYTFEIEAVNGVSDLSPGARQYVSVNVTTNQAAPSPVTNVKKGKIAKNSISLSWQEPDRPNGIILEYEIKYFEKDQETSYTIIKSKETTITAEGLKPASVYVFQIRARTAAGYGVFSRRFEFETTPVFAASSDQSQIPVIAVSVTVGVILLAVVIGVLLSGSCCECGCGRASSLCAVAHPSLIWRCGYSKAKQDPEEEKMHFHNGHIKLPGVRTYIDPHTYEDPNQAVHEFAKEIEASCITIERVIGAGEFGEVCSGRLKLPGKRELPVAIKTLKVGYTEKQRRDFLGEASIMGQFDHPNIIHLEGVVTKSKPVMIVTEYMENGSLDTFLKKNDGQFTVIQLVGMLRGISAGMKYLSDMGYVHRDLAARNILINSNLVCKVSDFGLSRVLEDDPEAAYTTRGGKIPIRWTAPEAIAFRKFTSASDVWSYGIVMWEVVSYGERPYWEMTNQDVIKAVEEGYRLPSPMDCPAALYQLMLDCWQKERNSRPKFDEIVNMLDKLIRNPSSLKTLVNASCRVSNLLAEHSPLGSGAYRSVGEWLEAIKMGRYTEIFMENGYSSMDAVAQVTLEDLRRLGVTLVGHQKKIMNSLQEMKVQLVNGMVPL
EGFR(L858R), sequence (P00533 25-1210 L858R): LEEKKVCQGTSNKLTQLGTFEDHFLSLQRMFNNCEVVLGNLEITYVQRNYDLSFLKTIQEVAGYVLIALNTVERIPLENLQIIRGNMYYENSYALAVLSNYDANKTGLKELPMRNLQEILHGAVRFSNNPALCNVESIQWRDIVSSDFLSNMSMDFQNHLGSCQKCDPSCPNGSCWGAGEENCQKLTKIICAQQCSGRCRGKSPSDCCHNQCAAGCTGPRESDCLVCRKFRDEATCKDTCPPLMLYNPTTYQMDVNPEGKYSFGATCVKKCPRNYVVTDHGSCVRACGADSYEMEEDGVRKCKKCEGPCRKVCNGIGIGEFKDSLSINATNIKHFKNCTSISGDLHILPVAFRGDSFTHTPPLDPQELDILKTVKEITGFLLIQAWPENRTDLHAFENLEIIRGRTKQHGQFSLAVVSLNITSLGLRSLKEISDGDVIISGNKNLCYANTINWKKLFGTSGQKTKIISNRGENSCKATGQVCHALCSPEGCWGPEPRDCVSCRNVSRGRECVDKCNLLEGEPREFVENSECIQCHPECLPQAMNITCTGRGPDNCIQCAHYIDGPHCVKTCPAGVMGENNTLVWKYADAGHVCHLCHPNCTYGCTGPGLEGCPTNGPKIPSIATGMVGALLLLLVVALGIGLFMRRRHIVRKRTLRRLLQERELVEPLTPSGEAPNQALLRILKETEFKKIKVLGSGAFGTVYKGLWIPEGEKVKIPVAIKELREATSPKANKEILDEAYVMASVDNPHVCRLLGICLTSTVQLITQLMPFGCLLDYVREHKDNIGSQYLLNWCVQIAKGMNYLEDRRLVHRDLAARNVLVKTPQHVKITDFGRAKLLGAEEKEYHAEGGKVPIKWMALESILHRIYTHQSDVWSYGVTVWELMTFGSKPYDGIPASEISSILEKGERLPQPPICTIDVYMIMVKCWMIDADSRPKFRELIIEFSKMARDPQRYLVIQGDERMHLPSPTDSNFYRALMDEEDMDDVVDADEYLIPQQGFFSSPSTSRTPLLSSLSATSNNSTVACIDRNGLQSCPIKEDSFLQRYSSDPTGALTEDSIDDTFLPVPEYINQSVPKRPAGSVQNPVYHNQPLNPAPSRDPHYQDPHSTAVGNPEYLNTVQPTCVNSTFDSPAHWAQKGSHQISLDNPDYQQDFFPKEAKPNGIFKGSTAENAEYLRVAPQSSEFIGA
MST4, sequence (Q9P289 whole entry): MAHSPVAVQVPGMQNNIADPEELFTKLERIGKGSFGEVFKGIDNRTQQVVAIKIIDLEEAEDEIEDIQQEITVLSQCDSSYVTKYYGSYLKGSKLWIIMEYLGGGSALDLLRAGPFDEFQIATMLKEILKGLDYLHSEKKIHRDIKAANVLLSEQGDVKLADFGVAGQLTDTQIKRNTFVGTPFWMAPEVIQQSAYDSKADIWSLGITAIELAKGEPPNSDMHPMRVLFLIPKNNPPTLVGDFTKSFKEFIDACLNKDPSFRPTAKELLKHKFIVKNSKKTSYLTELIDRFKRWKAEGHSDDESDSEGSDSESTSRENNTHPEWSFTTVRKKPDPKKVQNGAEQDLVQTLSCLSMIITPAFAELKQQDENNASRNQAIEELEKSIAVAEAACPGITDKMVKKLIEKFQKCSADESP
KIT(V559D,V654A), sequence (P10721 26-976 V559D/V654A): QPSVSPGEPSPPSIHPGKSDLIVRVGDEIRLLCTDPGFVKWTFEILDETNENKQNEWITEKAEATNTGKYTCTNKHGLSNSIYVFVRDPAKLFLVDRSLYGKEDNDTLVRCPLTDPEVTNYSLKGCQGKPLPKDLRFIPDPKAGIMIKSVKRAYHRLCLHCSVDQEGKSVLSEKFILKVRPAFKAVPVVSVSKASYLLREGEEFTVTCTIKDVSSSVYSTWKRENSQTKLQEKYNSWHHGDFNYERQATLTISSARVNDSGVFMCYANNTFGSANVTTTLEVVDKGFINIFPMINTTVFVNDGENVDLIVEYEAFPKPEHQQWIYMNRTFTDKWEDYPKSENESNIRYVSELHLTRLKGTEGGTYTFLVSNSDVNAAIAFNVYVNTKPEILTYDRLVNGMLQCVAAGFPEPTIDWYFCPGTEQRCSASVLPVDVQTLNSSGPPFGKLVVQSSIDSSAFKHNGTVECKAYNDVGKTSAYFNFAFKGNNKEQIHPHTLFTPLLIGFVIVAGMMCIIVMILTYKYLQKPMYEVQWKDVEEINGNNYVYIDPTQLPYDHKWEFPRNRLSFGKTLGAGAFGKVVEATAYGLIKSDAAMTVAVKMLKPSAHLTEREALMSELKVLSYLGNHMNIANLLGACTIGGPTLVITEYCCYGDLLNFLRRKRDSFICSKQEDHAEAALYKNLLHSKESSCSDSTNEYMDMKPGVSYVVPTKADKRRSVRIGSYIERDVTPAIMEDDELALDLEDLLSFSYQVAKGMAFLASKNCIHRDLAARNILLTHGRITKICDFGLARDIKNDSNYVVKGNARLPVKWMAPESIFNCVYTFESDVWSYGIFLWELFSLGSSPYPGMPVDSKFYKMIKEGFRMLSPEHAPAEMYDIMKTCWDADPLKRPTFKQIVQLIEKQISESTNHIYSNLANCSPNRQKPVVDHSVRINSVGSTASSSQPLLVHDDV
MARK3, sequence (P27448 whole entry): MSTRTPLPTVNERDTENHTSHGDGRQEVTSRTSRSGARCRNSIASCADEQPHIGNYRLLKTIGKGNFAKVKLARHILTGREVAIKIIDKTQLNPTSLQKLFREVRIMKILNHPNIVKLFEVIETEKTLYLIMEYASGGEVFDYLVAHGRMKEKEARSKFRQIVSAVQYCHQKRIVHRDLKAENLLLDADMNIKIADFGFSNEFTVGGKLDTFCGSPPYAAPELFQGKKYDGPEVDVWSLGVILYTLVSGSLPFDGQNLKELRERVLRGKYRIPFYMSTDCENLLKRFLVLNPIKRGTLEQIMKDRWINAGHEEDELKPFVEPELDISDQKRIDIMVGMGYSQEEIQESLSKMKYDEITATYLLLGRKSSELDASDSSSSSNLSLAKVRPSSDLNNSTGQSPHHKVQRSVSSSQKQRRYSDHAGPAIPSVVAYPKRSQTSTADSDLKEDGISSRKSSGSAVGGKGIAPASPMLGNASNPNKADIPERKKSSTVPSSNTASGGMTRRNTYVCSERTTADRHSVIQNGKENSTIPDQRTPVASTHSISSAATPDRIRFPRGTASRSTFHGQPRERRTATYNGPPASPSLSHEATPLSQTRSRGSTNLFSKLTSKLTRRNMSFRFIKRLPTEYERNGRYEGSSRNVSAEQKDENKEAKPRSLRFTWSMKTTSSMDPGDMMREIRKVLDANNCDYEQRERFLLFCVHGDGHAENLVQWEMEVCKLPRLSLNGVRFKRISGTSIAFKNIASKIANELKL
GSK3B, sequence (P49841 whole entry): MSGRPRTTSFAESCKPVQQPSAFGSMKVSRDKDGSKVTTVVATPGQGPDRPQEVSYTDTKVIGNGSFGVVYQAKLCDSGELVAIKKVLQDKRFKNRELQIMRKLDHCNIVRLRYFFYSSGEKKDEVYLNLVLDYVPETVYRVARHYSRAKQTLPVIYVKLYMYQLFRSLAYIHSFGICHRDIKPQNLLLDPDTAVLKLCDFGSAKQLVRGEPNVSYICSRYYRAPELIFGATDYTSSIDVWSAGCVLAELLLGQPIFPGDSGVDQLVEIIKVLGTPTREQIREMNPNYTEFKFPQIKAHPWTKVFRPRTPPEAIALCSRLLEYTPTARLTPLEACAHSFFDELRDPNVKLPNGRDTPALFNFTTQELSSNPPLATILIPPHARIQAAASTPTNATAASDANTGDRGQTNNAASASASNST
JAK1(JH1domain-catalytic), sequence (P23458 875-1154 limits assumed): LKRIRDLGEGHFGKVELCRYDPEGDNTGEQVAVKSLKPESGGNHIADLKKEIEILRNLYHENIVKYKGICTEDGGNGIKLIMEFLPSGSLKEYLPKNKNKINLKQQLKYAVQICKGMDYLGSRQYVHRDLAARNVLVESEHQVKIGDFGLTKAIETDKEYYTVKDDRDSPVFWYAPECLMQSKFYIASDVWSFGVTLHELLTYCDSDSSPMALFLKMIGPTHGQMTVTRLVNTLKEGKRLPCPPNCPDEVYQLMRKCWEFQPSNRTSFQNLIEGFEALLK

## COc1cc(F)ccc1-c1cc(Nc2cc(CS(C)(=N)=O)ccn2)ncc1F (stereo not drawn) [VIP152]
Histamine H1
  inhibition at 10 µM: 1%
ERBB3
  remaining binding at 1 µM: 98%
CAMK2B
  remaining binding at 1 µM: 65%
DYRK1B
  remaining binding at 1 µM: 20%
ACVRL1
  remaining binding at 1 µM: 38%
[1]
  remaining binding at 1 µM: 96%
HIPK2
  remaining binding at 1 µM: 71%
MLK3
  remaining binding at 1 µM: 87%
[2]
  pIC50: > 7.00
ERK2
  remaining binding at 1 µM: 99%
AKT2
  remaining binding at 1 µM: 100%
EPHA5
  remaining binding at 1 µM: 88%
BTK
  remaining binding at 1 µM: 100%
EGFR(L858R)
  remaining binding at 1 µM: 76%
hERG potassium channel
  inhibition at 10 µM: 26%
RET(V804M)
  remaining binding at 0.1 µM: 100%
SNARK
  remaining binding at 0.1 µM: 100%
WNK1
  remaining binding at 0.1 µM: 100%
Imidazoline I2, Central
  pIC50: 5.85
  pKi: 6.03
Imidazoline I2, Central; Conc. 10 μM
  % Inh.: 82%
[3]
  apoptosis and stromal protection: induce significant apoptosis after 24 h and overcome stromal protection
STK35
  remaining binding at 0.1 µM: 100%
BUB1
  remaining binding at 1 µM: 7.1%
ROS1
  remaining binding at 0.1 µM: 100%
DYRK2
  remaining binding at 1 µM: 62%
CDC2L5
  remaining binding at 1 µM: 13%
MST4
  remaining binding at 1 µM: 89%
GSK3B
  remaining binding at 1 µM: 11%
KIT(V559D,V654A)
  remaining binding at 1 µM: 100%
Potassium Channel [KATP]
  inhibition at 10 µM: -19%
MARK3
  remaining binding at 1 µM: 100%
EGFR(G719S)
  remaining binding at 1 µM: 86%
